Structures are written as SMILES.

For one experiment, the target named is T1, Kit (Mus musculus, UniProt P05532).
T1 construct: specificity data for proteins generated from a library of eighteen full-length clones; biotin on random lysines (biotin-Lys-tRNA); host or cells: rabbit reticulocyte lysate, coupled transcription/translation (TnT, Promega)
Briefly: Kinase inhibitor profiling, pEY phosphorylation. The experiment is classed as biochemical. The procedure:
(§1) Proteins were produced in an in vitro transcription and translation reaction. […] The unbound components of the reaction containing endogenous kinases were removed by three washes with TT-buffer (25 mM Tris-HCl buffer pH 7.4 and 0.004% Triton), two five minutes washings with high-salt wash buffer (25 mM Tris-HCl buffer pH 7.4, 0.004% Triton, 1M NaCl and 5 mM DTT) and 3 more washes with TT-buffer. To these immobilized and purified proteins a tyrosine kinase substrate, 5 nM pEY (poly Glu-Tyr, Sigma, MO), was added in a 50 μl reaction solution containing 5 mM MgCl2, 5 mM MnCl2, 100 μM ATP, 25 mM Tris-HCl buffer pH 7.4, 0.05 mM Na3VO4, 0.004% TritonX-100, 2 mM DTT and EDTA-free protease inhibitor (Roche Molecular Biochemicals). This mixture was incubated with shaking at room temperature overnight to allow phosphorylation of the pEY substrate by the immobilized kinases. Following this incubation, 45 μl of this mixture was transferred to a streptavidin or avidin-coated NPT IPR plate coated with biotinylated anti-phosphotyrosine antibody (PY20, Zymed labs, CA) followed by incubation for 30 minutes at room temperature to allow the binding of the phosphorylated pEY substrate to the PY20 coated NPT plate. Following this binding step, 50 ng Sulfo-TAG labeled anti-phosphotyrosine in buffer containing 25 mM Tris-HCl buffer pH 7.4, 5 mM MgCl2, 0.05 mM Na3VO4, 0.004% TritonX-100, 2 mM DTT and 0.05% IgG was added followed by incubation at room temperature for 30 mm. The unbound reagents were removed by one time washing with water, and the TAG label was detected in presence of 150 μl IPR assay buffer (0.4 mM Gly-Gly buffer, pH 7.8, 1 mM EDTA, 0.1 M TPA). The ECL signals were measured using an imaging plate reader.
(§2) Proteins were produced using 100 ng of plasmid DNA Mock (Luciferase, Promega) or tyrosine kinases (Fert2 IMAGE ID # 4485050, FGFR1 IMAGE ID # 4037899, Fgfr2 IMAGE ID # 2654352, Src IMAGE ID # 3156400, BMX IMAGE ID # 3919253, LCK IMAGE ID # 4191610, Epha7 IMAGE ID # 3991628, Ephb4 IMAGE ID # 4013934, Tek IMAGE ID # 3482498, HCK IMAGE ID # 4778819, BTK IMAGE ID # 4478463, CSK IMAGE ID # 4398416, SYK IMAGE ID # 3870426, FGR IMAGE ID # 4419973, PTK2B IMAGE ID # 4339456, FRK(IMAGE ID # 4515877, Kit IMAGE ID # 2644960, Fgfr-4 IMAGE ID # 4239139, NTRK3 IMAGE ID # 4181574, Kdr IMAGE ID # 4238984, Incyte Genomics, CA) and immobilized on SA or avidin coated NPT-IPR plates as described in previous examples. The unbound components of the translation reaction (including any endogenous kinases) were removed by 3 washes with TT-buffer (25 mM Tris-HCl buffer pH 7.4 and 0.004% Triton), two five minutes washes with high-salt wash buffer (25 mM Tris-HCl buffer pH 7.4, 0.004% Triton, 1M NaCl and 5 mM DTT) and 3 washes with TT-buffer. […] The mixture was incubated at room temperature for 10 mm before starting the kinase reaction by adding 25 μl of 200 μM ATP in buffer A. This mixture was incubated with intermittent shaking at room temperature for 2 hours to overnight to allow (a) phosphorylation of the pEY substrate and (b) autophosphorylation of the immobilized kinases. Autophosphorylation and phosphorylation of the pEY was measured as described in Examples 7 and 8.
(§3) The ECL signal in control wells produced by tyrosine kinases was compared to the wells containing inhibitor compounds. The signal produced from Mock was negligible.

In another experiment the target is T2, EphB4 (Mus musculus, UniProt P54761).
T2 construct: specificity data for proteins generated from a library of eighteen full-length clones; host or cells: rabbit reticulocyte lysate, TnT coupled in vitro transcription/translation (cell-free)
T2 sequence (P54761 16-987): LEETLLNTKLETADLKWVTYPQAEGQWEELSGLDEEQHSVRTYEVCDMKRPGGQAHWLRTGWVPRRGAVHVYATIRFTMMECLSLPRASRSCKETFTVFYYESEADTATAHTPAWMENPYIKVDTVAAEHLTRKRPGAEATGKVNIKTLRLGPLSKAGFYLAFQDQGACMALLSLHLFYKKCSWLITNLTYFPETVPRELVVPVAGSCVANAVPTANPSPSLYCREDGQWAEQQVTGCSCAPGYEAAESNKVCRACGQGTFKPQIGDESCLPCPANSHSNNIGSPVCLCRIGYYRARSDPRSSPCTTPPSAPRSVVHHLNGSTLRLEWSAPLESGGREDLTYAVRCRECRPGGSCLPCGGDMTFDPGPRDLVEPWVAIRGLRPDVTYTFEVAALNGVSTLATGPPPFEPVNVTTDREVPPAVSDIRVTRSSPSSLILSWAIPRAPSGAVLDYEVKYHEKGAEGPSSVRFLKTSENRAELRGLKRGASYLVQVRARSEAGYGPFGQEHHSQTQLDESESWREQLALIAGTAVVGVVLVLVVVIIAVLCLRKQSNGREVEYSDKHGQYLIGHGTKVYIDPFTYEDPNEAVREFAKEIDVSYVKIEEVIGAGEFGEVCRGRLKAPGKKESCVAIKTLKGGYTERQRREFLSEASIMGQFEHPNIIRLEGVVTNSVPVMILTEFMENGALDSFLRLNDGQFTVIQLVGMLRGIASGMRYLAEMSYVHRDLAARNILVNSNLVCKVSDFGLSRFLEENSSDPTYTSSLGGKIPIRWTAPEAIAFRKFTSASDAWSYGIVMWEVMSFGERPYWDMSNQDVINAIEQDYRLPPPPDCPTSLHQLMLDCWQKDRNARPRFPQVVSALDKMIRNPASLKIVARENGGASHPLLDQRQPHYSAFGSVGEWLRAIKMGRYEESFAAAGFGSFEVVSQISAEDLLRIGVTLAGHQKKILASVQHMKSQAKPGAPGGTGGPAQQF
Put plainly: Kinase inhibitor profiling, pEY phosphorylation. The experiment is classed as biochemical. The procedure: as §1, §2, §3

For experiment [1], the system named is tyrosine kinases reported to be the target of each inhibitor. The following applies: read-out: reported IC50 concentration (1× concentration); for the kinase reported to be the target of the inhibitor; cited from earlier work.
A further experiment deals with T3, BTK (Homo sapiens, UniProt Q06187).
T3 construct: specificity data for proteins generated from a library of eighteen full-length clones; host or cells: rabbit reticulocyte lysate, TnT coupled in vitro transcription/translation (cell-free)
Briefly: Kinase inhibitor profiling, pEY phosphorylation. The format is biochemical. The procedure:
as §1
(§4) The unbound components of the translation reaction (including any endogenous kinases) were removed by 3 washes with TT-buffer (25 mM Tris-HCl buffer pH 7.4 and 0.004% Triton), two five minutes washes with high-salt wash buffer (25 mM Tris-HCl buffer pH 7.4, 0.004% Triton, 1M NaCl and 5 mM DTT) and 3 washes with TT-buffer. […] The mixture was incubated at room temperature for 10 mm before starting the kinase reaction by adding 25 μl of 200 μM ATP in buffer A. This mixture was incubated with intermittent shaking at room temperature for 2 hours to overnight to allow (a) phosphorylation of the pEY substrate and (b) autophosphorylation of the immobilized kinases. Autophosphorylation and phosphorylation of the pEY was measured as described in Examples 7 and 8.
(§5) The ECL signal in control wells produced by tyrosine kinases was compared to the wells containing inhibitor compounds.

The target of a further experiment is T4, Fgfr4 (Mus musculus, UniProt Q03142).
T4 construct: specificity data for proteins generated from a library of eighteen full-length clones; biotin on random lysines (biotin-Lys-tRNA); host or cells: rabbit reticulocyte lysate, coupled transcription/translation (TnT, Promega)
Put plainly: Kinase inhibitor profiling, pEY phosphorylation. The format is biochemical. The procedure:
as §1, §2, §3

The next experiment addresses T5, Kdr (Mus musculus, UniProt P35918).
T5 construct: specificity data for proteins generated from a library of eighteen full-length clones; biotin on random lysines (biotin-Lys-tRNA); host or cells: rabbit reticulocyte lysate, coupled transcription/translation (TnT, Promega)
Briefly: Kinase inhibitor profiling, pEY phosphorylation. The format is biochemical. The procedure: as §1, §4, §5

T1 sequence (P05532 25-979): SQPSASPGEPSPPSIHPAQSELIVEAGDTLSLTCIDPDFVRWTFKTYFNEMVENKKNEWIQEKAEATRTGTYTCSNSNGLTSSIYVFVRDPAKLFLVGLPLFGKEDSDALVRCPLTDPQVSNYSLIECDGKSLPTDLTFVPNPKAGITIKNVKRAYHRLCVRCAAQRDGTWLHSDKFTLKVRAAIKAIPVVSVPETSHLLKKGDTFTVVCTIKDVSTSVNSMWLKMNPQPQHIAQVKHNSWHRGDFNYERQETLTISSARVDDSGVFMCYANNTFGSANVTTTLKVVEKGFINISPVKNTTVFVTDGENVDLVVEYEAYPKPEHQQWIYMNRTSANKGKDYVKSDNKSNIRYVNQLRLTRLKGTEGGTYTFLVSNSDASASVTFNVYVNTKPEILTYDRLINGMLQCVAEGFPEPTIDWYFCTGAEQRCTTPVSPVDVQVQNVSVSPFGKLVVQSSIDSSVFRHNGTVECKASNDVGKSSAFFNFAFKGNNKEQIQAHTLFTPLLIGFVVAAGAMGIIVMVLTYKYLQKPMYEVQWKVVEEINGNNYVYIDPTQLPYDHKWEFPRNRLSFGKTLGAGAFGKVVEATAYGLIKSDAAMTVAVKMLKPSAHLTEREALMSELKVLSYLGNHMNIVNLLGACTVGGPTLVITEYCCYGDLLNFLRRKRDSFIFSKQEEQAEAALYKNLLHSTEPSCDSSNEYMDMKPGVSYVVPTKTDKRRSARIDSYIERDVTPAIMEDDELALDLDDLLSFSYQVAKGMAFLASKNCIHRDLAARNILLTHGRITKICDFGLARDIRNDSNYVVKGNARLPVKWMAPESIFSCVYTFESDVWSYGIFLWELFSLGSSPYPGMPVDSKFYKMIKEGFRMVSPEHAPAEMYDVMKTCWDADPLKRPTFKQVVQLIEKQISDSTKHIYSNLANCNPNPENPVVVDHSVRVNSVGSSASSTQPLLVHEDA
T3 sequence (Q06187 whole entry): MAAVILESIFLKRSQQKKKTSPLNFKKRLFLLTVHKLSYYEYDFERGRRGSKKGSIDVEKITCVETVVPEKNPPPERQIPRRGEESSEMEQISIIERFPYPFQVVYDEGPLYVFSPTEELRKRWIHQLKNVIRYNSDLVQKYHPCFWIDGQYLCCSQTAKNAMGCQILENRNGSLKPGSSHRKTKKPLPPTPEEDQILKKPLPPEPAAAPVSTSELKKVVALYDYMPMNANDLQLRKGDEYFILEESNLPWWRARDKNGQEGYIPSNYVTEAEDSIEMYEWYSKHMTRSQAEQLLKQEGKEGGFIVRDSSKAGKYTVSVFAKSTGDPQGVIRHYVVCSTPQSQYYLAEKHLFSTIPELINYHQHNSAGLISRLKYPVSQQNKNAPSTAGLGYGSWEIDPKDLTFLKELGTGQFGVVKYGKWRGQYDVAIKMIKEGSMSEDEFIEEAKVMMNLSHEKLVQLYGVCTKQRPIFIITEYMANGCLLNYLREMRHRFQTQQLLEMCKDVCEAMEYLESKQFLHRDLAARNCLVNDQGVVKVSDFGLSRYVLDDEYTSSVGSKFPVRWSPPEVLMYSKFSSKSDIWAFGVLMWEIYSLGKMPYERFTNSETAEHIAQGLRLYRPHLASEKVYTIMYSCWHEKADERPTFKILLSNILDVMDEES
T5 sequence (P35918 20-1345): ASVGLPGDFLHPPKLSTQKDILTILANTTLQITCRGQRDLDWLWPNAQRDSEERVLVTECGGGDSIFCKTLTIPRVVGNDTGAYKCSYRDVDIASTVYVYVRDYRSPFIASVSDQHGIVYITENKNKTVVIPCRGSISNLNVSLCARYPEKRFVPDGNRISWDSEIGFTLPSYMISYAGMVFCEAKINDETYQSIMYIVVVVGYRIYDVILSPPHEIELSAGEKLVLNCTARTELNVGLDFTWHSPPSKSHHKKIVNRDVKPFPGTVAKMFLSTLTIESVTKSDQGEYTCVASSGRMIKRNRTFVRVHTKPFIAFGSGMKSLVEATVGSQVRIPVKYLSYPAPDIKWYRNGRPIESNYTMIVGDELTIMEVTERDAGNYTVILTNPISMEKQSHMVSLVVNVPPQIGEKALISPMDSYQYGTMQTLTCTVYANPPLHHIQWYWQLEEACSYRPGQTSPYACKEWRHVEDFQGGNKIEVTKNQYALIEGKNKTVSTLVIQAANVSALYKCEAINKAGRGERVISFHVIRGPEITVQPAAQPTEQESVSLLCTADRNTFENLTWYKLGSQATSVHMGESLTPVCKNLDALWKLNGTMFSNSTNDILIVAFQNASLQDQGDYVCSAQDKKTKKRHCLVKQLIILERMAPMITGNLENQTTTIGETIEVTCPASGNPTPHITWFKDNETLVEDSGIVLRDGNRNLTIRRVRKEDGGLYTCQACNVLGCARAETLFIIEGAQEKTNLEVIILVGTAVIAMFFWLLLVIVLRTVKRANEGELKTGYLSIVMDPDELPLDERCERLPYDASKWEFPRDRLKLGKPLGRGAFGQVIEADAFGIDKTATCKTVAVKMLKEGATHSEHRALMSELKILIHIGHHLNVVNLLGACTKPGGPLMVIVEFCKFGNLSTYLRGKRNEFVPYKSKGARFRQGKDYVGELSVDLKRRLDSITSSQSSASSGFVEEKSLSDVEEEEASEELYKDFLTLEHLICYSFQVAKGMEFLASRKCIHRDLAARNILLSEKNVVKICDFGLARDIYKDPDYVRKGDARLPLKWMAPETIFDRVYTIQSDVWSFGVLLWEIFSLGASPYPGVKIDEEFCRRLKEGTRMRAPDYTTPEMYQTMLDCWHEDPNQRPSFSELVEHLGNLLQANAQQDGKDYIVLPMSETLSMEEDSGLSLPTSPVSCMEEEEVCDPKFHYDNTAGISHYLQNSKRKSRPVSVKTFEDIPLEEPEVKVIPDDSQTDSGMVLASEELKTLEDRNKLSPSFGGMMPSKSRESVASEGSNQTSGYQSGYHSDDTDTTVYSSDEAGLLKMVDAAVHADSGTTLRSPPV
T4 sequence (Q03142 17-799): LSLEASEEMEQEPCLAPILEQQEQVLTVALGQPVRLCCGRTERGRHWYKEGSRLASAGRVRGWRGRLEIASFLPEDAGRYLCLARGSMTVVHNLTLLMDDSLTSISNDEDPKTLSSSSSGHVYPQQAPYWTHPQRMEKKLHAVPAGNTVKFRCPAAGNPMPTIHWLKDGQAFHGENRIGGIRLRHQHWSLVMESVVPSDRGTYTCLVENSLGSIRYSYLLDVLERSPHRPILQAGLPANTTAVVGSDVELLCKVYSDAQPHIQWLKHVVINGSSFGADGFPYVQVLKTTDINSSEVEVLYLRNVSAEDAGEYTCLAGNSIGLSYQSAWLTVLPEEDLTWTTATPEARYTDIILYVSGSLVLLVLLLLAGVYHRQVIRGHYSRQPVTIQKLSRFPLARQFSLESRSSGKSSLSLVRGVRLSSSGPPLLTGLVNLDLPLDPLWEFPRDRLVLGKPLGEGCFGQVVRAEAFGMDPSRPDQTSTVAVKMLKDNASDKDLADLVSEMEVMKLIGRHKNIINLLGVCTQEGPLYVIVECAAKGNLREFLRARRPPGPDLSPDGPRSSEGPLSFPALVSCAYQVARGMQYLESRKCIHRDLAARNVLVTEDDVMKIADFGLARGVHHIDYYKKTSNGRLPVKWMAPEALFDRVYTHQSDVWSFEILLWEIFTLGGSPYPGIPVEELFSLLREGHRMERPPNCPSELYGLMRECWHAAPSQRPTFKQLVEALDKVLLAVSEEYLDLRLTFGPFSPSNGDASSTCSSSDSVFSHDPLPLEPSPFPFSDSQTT

With `O=c1c(-c2ccc(O)cc2)coc2cc(O)cc(O)c12` [Genistein], at Kit, the “Inhibition specificity towards pEY phosphorylation at 10X IC50, Kit” value was “M (medium inhibition (“M”=between 25 to 50% of the activity remaining))”. Further, the “Inhibition specificity towards pEY phosphorylation at 10X IC50, EphB4” value at EphB4 was “L (low inhibition (“L”=between 50–75% of the activity remaining))”.
Regarding `N#C/C(=C/c1ccc(O)c(O)c1)C(=O)NCc1ccccc1` [AG-490], the IC50 in experiment [1] was 0.1 µM. In addition, the “Inhibition specificity towards pEY phosphorylation at 10X IC50, BTK” value at BTK is listed as “L (low inhibition (“L”=between 50–75% of the activity remaining))”.
As for `COc1cc2ncc(-c3ccccc3)nc2cc1OC` [AG-1296], the “Inhibition specificity towards pEY phosphorylation at 10X IC50, Kit” value at Kit is recorded as “M (medium inhibition (“M”=between 25 to 50% of the activity remaining))”. On EphB4, the “Inhibition specificity towards pEY phosphorylation at 10X IC50, EphB4” value was “L (low inhibition (“L”=between 50–75% of the activity remaining))”. The IC50 in experiment [1] is 1 µM.
Take `C/C(O)=C(\C#N)C(=O)Nc1cc(Br)ccc1Br` [LFM-A13]: the “Inhibition specificity towards pEY phosphorylation at 10X IC50, Fgfr4” value at Fgfr4 was “M (medium inhibition (“M”=between 25 to 50% of the activity remaining))”. Also, on Kit, the “Inhibition specificity towards pEY phosphorylation at 10X IC50, Kit” value was “M (medium inhibition (“M”=between 25 to 50% of the activity remaining))”. Also, the IC50 in experiment [1] was 17.2 µM. Besides, the “Inhibition specificity towards pEY phosphorylation at 10X IC50, Kdr” value on Kdr is on record as “L (low inhibition (“L”=between 50–75% of the activity remaining))”.
With `CC(C)(C)c1cc(/C=C(\C#N)C(N)=S)cc(C(C)(C)C)c1O` [AG879], in experiment [1], the IC50 is 10 µM. Further, on BTK, the “Inhibition specificity towards pEY phosphorylation at 10X IC50, BTK” value is given as “L (low inhibition (“L”=between 50–75% of the activity remaining))”.
As for `O=C(O)c1cc(N(Cc2ccccc2O)Cc2cc(O)ccc2O)ccc1O` [Lavendustin A], the “Inhibition specificity towards pEY phosphorylation at 10X IC50, Kit” value at Kit was “L (low inhibition (“L”=between 50–75% of the activity remaining))”. Moreover, the IC50 in experiment [1] was 0.011 µM.
Regarding `CC(C)(C)c1cc(C=C(C#N)C#N)cc(C(C)(C)C)c1O` [AG-17], the “Inhibition specificity towards pEY phosphorylation at 10X IC50, Kit” value at Kit is given as “L (low inhibition (“L”=between 50–75% of the activity remaining))”. Besides, the IC50 in experiment [1] is 0.5 µM.

Values taken from patent US7063946B2, “Methods, reagents, kits and apparatus for protein function analysis” (Meso Scale Technologies, LLC., priority 2001, dated 2006).
